Literature values in patent US8278268B2, “Combination therapy comprising glucose reabsorption inhibitors and PPAR modulators” (Ortho-McNeil Pharmaceutical, Inc., priority 2001, dated 2012).
Where two headings read alike, the source gives them in different places.

Experiments:
SGLT1 = SGLT1 (Homo sapiens, UniProt P13866); conditions: read-out: Km in vitro; Sm. Intestine; stoichiometry 2:1; for D-glucose; cited from earlier work
SGLT2 (SAAT1) = conditions: cited from earlier work; for Km: for D-glucose

Sequence of SGLT1 (P13866 whole entry, species assumed): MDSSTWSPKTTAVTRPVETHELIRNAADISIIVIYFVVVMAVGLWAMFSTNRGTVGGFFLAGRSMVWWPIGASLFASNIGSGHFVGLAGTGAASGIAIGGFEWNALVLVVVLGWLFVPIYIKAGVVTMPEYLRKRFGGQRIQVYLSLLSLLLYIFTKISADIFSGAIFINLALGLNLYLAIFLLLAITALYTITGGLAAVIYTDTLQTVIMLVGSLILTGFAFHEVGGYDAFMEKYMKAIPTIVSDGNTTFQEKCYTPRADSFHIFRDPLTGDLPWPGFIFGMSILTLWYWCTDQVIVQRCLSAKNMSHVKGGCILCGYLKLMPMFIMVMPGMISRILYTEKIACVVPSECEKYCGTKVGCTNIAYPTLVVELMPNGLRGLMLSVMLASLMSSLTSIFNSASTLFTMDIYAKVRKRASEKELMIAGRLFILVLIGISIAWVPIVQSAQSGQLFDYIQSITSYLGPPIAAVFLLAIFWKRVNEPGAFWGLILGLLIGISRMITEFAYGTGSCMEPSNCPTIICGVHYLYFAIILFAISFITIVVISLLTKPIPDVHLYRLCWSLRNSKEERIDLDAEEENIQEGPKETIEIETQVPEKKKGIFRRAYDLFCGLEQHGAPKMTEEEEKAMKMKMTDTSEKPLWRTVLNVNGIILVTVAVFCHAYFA

For `O=C[C@H](O)[C@@H](O)[C@H](O)[C@H](O)CO` [D-glucose], the Km (SGLT1) is listed as 100 µM, the “TmG in vitro (maximal transport rate)” value (SGLT2 (SAAT1); Kidney (S1, S3), stoichiometry 2:1) is listed as 7.9 pmol/min/mm and the Km (SGLT2 (SAAT1); Kidney (S1, S3), stoichiometry 2:1, read-out: Km in vitro) is listed as 390 µM. The Km (SGLT2 (SAAT1); Kidney (S1, S3), stoichiometry 2:1, read-out: Km in vivo) was 300 µM, the “TmG in vitro (maximal transport rate)” value (SGLT2 (SAAT1); Kidney (S3), stoichiometry 1:1) was 83 pmol/min/mm and the Km (SGLT2 (SAAT1); Kidney (S3), stoichiometry 1:1, read-out: Km in vitro) was 1640 µM. The Km (SGLT2 (SAAT1); Kidney (S3), stoichiometry 1:1, read-out: Km in vivo) was 6000 µM.
